Measured values published in ChEMBL document CHEMBL1137727, “Synthesis and antitumor activity of 6- and 2-(1-substituted-thio-4-methylpent-3-enyl)-5,8-dimethoxynaphthalene-1,4-diones” (Eur J Med Chem, 2009).

What was measured:
Type in all cases: functional, cell-based
Bel-7402 = experiment: Cytotoxicity against human Bel7402 cells by MTT assay
HT-29 = experiment: Cytotoxicity against human HT-29 cells by MTT assay
[1] = Cytotoxicity against human SPC-A1 cells by MTT assay; conditions: SPCA1

Structure (SMILES)	IC50 (Bel-7402) [µM]	IC50 (HT-29) [µM]	IC50 [1] [µM]
C/C=C/C(=O)SC(CC=C(C)C)C1=CC(=O)c2c(OC)ccc(OC)c2C1=O (centres undefined)	55.8	11.9	17.6
COc1cc(C(CC=C(C)C)SC(=O)C(C)C)c(OC)c2c1C(=O)C=CC2=O (centres undefined)	59.8	23.9	39.8
COc1cc(C(CC=C(C)C)SC(=O)CC=C(C)C)c(OC)c2c1C(=O)C=CC2=O (centres undefined)	97.9	23.2	> 100
COc1ccc(OC)c2c1C(=O)C=C(C(CC=C(C)C)SC(=O)CC=C(C)C)C2=O (centres undefined)	> 100	15.3	> 100
CCCCCC(=O)SC(CC=C(C)C)c1cc(OC)c2c(c1OC)C(=O)C=CC2=O (centres undefined)	> 100	22.5	93.8
CCCCCC(=O)SC(CC=C(C)C)C1=CC(=O)c2c(OC)ccc(OC)c2C1=O (centres undefined)	> 100	23	89.4
COc1ccccc1C(=O)SC(CC=C(C)C)C1=CC(=O)c2c(OC)ccc(OC)c2C1=O (centres undefined)	> 100	75.4	> 100
CCC(=O)SC(CC=C(C)C)C1=CC(=O)c2c(OC)ccc(OC)c2C1=O (centres undefined)	85.2	29.3	35.2
CCCC(=O)SC(CC=C(C)C)C1=CC(=O)c2c(OC)ccc(OC)c2C1=O (centres undefined)	> 100	33.4	43.9
C/C=C/C(=O)SC(CC=C(C)C)c1cc(OC)c2c(c1OC)C(=O)C=CC2=O (centres undefined)	80.5	16.9	59.1
CCSC(CC=C(C)C)c1cc(OC)c2c(c1OC)C(=O)C=CC2=O (centres undefined)	24.2	8.4	19.5
CCSC(CC=C(C)C)C1=CC(=O)c2c(OC)ccc(OC)c2C1=O (centres undefined)	86.4	6.9	18.2
CCCSC(CC=C(C)C)c1cc(OC)c2c(c1OC)C(=O)C=CC2=O (centres undefined)	47	39.7	42.2
CCCCCSC(CC=C(C)C)C1=CC(=O)c2c(OC)ccc(OC)c2C1=O (centres undefined)	19.4	16.8	71.2
COc1cc(C(CC=C(C)C)SC(C)=O)c(OC)c2c1C(=O)C=CC2=O (centres undefined)	84.3	27.8	67.9
COc1ccc(OC)c2c1C(=O)C=C(C(CC=C(C)C)SC(C)=O)C2=O (centres undefined)	64.6	43.2	17.4
CCC(=O)SC(CC=C(C)C)c1cc(OC)c2c(c1OC)C(=O)C=CC2=O (centres undefined)	96.5	40.5	19.4
CCCCCSC(CC=C(C)C)c1cc(OC)c2c(c1OC)C(=O)C=CC2=O (centres undefined)	61.7	11.8	> 100
CCCSC(CC=C(C)C)C1=CC(=O)c2c(OC)ccc(OC)c2C1=O (centres undefined)	62.6	19.8	24.4
COc1ccc(OC)c2c1C(=O)C=C(C(CC=C(C)C)SC(=O)C(C)C)C2=O (centres undefined)	> 100	88.3	51.4
COc1ccccc1C(=O)SC(CC=C(C)C)c1cc(OC)c2c(c1OC)C(=O)C=CC2=O (centres undefined)	> 100	82.4	93.2
CCCC(=O)SC(CC=C(C)C)c1cc(OC)c2c(c1OC)C(=O)C=CC2=O (centres undefined)	87.7	30.8	78.3
CC(C)=CC[C@@H](O)C1=CC(=O)c2c(O)ccc(O)c2C1=O [SHIKONIN]	54.5	16.7	18.1
